Columns and labels:
Experiment in all cases: Test D controlled growth environment herbicide test, pre- and postemergence
Assay type in all cases: in vivo
[1] = tested on: barley, spring (spring barley, Hordeum vulgare)
Procedure, shortened: (§1)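 Rating is visual, 0–100 scale (100 = complete control), made against untreated plants 14–21 d after treatment in controlled growth conditions. Postemergence sprays went onto 1- to 4-leaf plants in peat medium; preemergence sprays onto silt loam after sowing; formulation included a surfactant.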

[2] = tested on: barley, winter (winter barley, Hordeum vulgare)
Procedure, shortened: as §1

[3] = tested on: blackgrass (Alopecurus myosuroides)
Procedure, shortened: as §1

[4] = tested on: bromegrass, downy (downy bromegrass, Bromus tectorum)
Procedure, shortened: as §1

[5] = tested on: chamomile (scentless chamomile, Matricaria inodora)
Procedure, shortened: as §1

[6] = tested on: chickweed (common chickweed, Stellaria media)
Procedure, shortened: as §1

[7] = tested on: deadnettle (henbit deadnettle, Lamium amplexicaule)
Procedure, shortened: as §1

[8] = tested on: field poppy (Papaver rhoeas)
Procedure, shortened: as §1

[9] = tested on: foxtail, green (green foxtail, Setaria viridis)
Procedure, shortened: as §1

[10] = tested on: lambsquarters (Chenopodium album)
Procedure, shortened: as §1

[11] = tested on: ryegrass, Italian (Italian ryegrass, Lolium multiflorum)
Procedure, shortened: as §1

[12] = tested on: wheat, spring (spring wheat, Triticum aestivum)
Procedure, shortened: as §1

[13] = tested on: wheat, winter (winter wheat, Triticum aestivum)
Procedure, shortened: as §1

[14] = Postemergence, 31 g ai/ha, scale 0 to 100 (0 no effect, 100 complete control)
[15] = Postemergence, 125 g ai/ha, visual rating on scale 0 (no effect) to 100 (complete control), 14 to 21 d
[16] = Postemergence, 250 g ai/ha, scale 0 to 100 (0 no effect, 100 complete control)
[17] = Preemergence, 62 g ai/ha, scale 0 to 100 (0 no effect, 100 complete control)
[18] = Preemergence, 125 g ai/ha, scale 0 to 100 (0 no effect, 100 complete control)
[19] = Preemergence, 250 g ai/ha, scale 0 to 100 (0 no effect, 100 complete control)
[20] = postemergence, 62 g ai/ha, scale 0 to 100, 0 no effect, 100 complete control

## CCOC(=O)Oc1c(C)nn(C)c(=O)c1-c1c(C)sc2ccc(C)cc12 [Compound 82]
[1]; [14]
  Barley, Spring plant response rating: 0
[1]; [15]
  Plant response rating, Barley, Spring: 0
[1]; [16]
  Plant response rating, Barley, Spring: 5
[1]; Preemergence, 31 g ai/ha
  Plant response rating (scale of 0 to 100), Barley, Spring: 0
[1]; [17]
  Plant response rating, Barley, Spring: 0
[1]; [18]
  Plant response rating, Barley, Spring: 0
[1]; [19]
  Plant response rating, Barley, Spring: 10
[1]; [20]
  Plant response rating, Barley, Spring: 5
[2]; [14]
  Barley, Winter plant response rating: 0
[2]; [15]
  Plant response rating, Barley, Winter: 0
[2]; [16]
  Plant response rating, Barley, Winter: 0
[2]; Preemergence, 31 g ai/ha
  Plant response rating (scale of 0 to 100), Barley, Winter: 0
[2]; [17]
  Plant response rating, Barley, Winter: 0
[2]; [18]
  Plant response rating, Barley, Winter: 5
[2]; [19]
  Plant response rating, Barley, Winter: 25
[2]; [20]
  Plant response rating, Barley, Winter: 0
[3]; [14]
  Blackgrass plant response rating: 45
[3]; [15]
  Plant response rating, Blackgrass: 75
[3]; [16]
  Plant response rating, Blackgrass: 80
[3]; Preemergence, 31 g ai/ha
  Plant response rating (scale of 0 to 100), Blackgrass: 70
[3]; [17]
  Plant response rating, Blackgrass: 75
[3]; [18]
  Plant response rating, Blackgrass: 75
[3]; [19]
  Plant response rating, Blackgrass: 80
[3]; [20]
  Plant response rating, Blackgrass: 70
[4]; [14]
  Bromegrass, Downy plant response rating: 55
[4]; [15]
  Plant response rating, Bromegrass, Downy: 60
[4]; [16]
  Plant response rating, Bromegrass, Downy: 60
[4]; Preemergence, 31 g ai/ha
  Plant response rating (scale of 0 to 100), Bromegrass, Downy: 45
[4]; [17]
  Plant response rating, Bromegrass, Downy: 65
[4]; [18]
  Plant response rating, Bromegrass, Downy: 80
[4]; [19]
  Plant response rating, Bromegrass, Downy: 85
[4]; [20]
  Plant response rating, Bromegrass, Downy: 45
[5]; [14]
  Chamomile plant response rating: 90
[5]; [15]
  Plant response rating, Chamomile: 100
[5]; [16]
  Plant response rating, Chamomile: 100
[5]; Preemergence, 31 g ai/ha
  Plant response rating (scale of 0 to 100), Chamomile: 100
[5]; Preemergence, 62 g ai/ha
  Plant response rating (scale of 0 to 100), Chamomile: 100
[5]; [18]
  Plant response rating, Chamomile: 100
[5]; [19]
  Plant response rating, Chamomile: 100
[5]; [20]
  Plant response rating, Chamomile: 100
[6]; [14]
  Chickweed plant response rating: 80
[6]; [15]
  Plant response rating, Chickweed: 95
[6]; [16]
  Plant response rating, Chickweed: 100
[6]; Preemergence, 31 g ai/ha
  Plant response rating (scale of 0 to 100), Chickweed: 100
[6]; Preemergence, 62 g ai/ha
  Plant response rating (scale of 0 to 100), Chickweed: 100
[6]; [18]
  Plant response rating, Chickweed: 100
[6]; [19]
  Plant response rating, Chickweed: 100
[6]; [20]
  Plant response rating, Chickweed: 90
[7]; [14]
  Deadnettle plant response rating: 10
[7]; [15]
  Plant response rating, Deadnettle: 25
[7]; [16]
  Plant response rating, Deadnettle: 35
[7]; Preemergence, 31 g ai/ha
  Plant response rating (scale of 0 to 100), Deadnettle: 10
[7]; Preemergence, 62 g ai/ha
  Plant response rating (scale of 0 to 100), Deadnettle: 25
[7]; [18]
  Plant response rating, Deadnettle: 25
[7]; [19]
  Plant response rating, Deadnettle: 70
[7]; [20]
  Plant response rating, Deadnettle: 10
[8]; [14]
  Field Poppy plant response rating: 70
[8]; [15]
  Plant response rating, Field Poppy: 95
[8]; [16]
  Plant response rating, Field Poppy: 100
[8]; Preemergence, 31 g ai/ha
  Plant response rating (scale of 0 to 100), Field Poppy: 95
[8]; Preemergence, 62 g ai/ha
  Plant response rating (scale of 0 to 100), Field Poppy: 100
[8]; [18]
  Plant response rating, Field Poppy: 100
[8]; [19]
  Plant response rating, Field Poppy: 100
[8]; [20]
  Plant response rating, Field Poppy: 85
[9]; [14]
  Foxtail, Green plant response rating: 75
[9]; [15]
  Plant response rating, Foxtail, Green: 85
[9]; [16]
  Plant response rating, Foxtail, Green: 90
[9]; Preemergence, 31 g ai/ha
  Plant response rating (scale of 0 to 100), Foxtail, Green: 35
[9]; Preemergence, 62 g ai/ha
  Plant response rating (scale of 0 to 100), Foxtail, Green: 75
[9]; [18]
  Plant response rating, Foxtail, Green: 90
[9]; [19]
  Plant response rating, Foxtail, Green: 85
[9]; [20]
  Plant response rating, Foxtail, Green: 80
[10]; [14]
  Lambsquarters plant response rating: 95
[10]; [15]
  Plant response rating, Lambsquarters: 95
[10]; [16]
  Plant response rating, Lambsquarters: 100
[10]; Preemergence, 31 g ai/ha
  Plant response rating (scale of 0 to 100), Lambsquarters: 75
[10]; Preemergence, 62 g ai/ha
  Plant response rating (scale of 0 to 100), Lambsquarters: 95
[10]; [18]
  Plant response rating, Lambsquarters: 100
[10]; [19]
  Plant response rating, Lambsquarters: 100
[10]; [20]
  Plant response rating, Lambsquarters: 95
[11]; [14]
  Ryegrass, Italian plant response rating: 85
[11]; [15]
  Plant response rating, Ryegrass, Italian: 90
[11]; [16]
  Plant response rating, Ryegrass, Italian: 90
[11]; Preemergence, 31 g ai/ha
  Plant response rating (scale of 0 to 100), Ryegrass, Italian: 75
[11]; Preemergence, 62 g ai/ha
  Plant response rating (scale of 0 to 100), Ryegrass, Italian: 80
[11]; [18]
  Plant response rating, Ryegrass, Italian: 90
[11]; [19]
  Plant response rating, Ryegrass, Italian: 95
[11]; [20]
  Plant response rating, Ryegrass, Italian: 85
[12]; [14]
  Wheat, Spring plant response rating: 0
[12]; [15]
  Plant response rating, Wheat, Spring: 0
[12]; [16]
  Plant response rating, Wheat, Spring: 5
[12]; Preemergence, 31 g ai/ha
  Plant response rating (scale of 0 to 100), Wheat, Spring: 0
[12]; Preemergence, 62 g ai/ha
  Plant response rating (scale of 0 to 100), Wheat, Spring: 0
[12]; [18]
  Plant response rating, Wheat, Spring: 15
[12]; [19]
  Plant response rating, Wheat, Spring: 40
[12]; [20]
  Plant response rating, Wheat, Spring: 0
[13]; [14]
  Wheat, Winter plant response rating: 0
[13]; [15]
  Plant response rating, Wheat, Winter: 0
[13]; [16]
  Plant response rating, Wheat, Winter: 0
[13]; Preemergence, 31 g ai/ha
  Plant response rating (scale of 0 to 100), Wheat, Winter: 0
[13]; Preemergence, 62 g ai/ha
  Plant response rating (scale of 0 to 100), Wheat, Winter: 0
[13]; [18]
  Plant response rating, Wheat, Winter: 0
[13]; [19]
  Plant response rating, Wheat, Winter: 10
[13]; [20]
  Plant response rating, Wheat, Winter: 0
